{"source": "patent US6831069B2", "about": "“Pyrrolo[2,3-d]pyrimidine nucleoside analogs” (priority 1999, dated 2004)", "key": {"[1]": {"tested_on": "activated human T cells", "assay": "Analysis of cytokine mRNA (RT-PCR, Southern blot) in PMA-ION activated human T cells", "assay_type": "cell-based"}, "[2]": {"tested_on": "activated peripheral human T cells", "assay": "Extracellular cytokine analyses (ELISA) in PMA-ION activated peripheral human T cells", "assay_type": "cell-based", "design": "secreted IL-4, increase over activated control / IFNγ, decrease over activated control: concentration or dose not given beside the values", "settings": "for heightened IL-4 production / reduced levels of secreted IFNγ: PMA-ION; for IFNγ, decrease over activated control / secreted IL-4, increase over activated control: 48 h PMA-ION"}, "[3]": {"tested_on": "BALB/c mice", "assay": "Contact hypersensitivity (CHS) to DNFB", "assay_type": "in vivo, mouse", "settings": "for mean decrease in ear thickness (inhibition of CHS): 24 h post-challenge", "description": "Reactivity to the contact allergen, DNFB, was determined, in BALB/c mice, as previously described (Ishii, N., K. Takahashi, H. Nakajima, S. Tanaka, P. W. Askenase. 1994. DNFB contact sensitivity (CS) in BALB/c and C3H/He mice. J. Invest. Dermatol. 102:321). Briefly, mice were sensitized by application of 20 μl of 0.3% DNFB in acetone: olive oil, 4:1 onto the shaved abdomens of naive mice. For optimal elicitation of CHS, the mice were challenged on both sides of each ear with 20 μl of 0.12% DNFB, five days after sensitization. Unsensitized mice were also challenged and used as controls in each experiment. After 24 h, ear thickness measurements were taken and response to DNFB was assessed by subtracting […]. Where indicated, 7-β-D-ribofuranosyl-4-oxopyrrolo-[2,3-d]pyrimidine-5-carboxamidine, at a dose of 6.2 μg in 50 μl PBS (0.3 mg/kg) or 12.4 μg in 100 μl PBS (0.6 mg/kg), was administered by i.p. injection at the time of challenge with DNFB. These doses of 7-β-D-ribofuranosyl-4-oxopyrrolo[2,3-d]pyrimidine-5-carboxamidine gave maximal effect in preliminary optimization studies. Following final ear thickness measurements, mice were sacrificed by cervical dislocation and axillary/lateral axillary lymph nodes were removed. Following isolation of total cellular RNA from isolated lymph node cells, RT-PCR and Southern Blot analyses were performed to monitor for mouse IFNg, IL-2, and IL-10 mRNA levels.\nTotal cellular RNA was extracted using Trizol reagent (Life Technologies, Gaithersburg, Md.). The cDNA synthesis reaction was performed using oligo (dT)12-18 primer and Superscript II (Life Technologies) reverse transcriptase. The PCR reaction (GeneAmp PCR kit, Perkin-Elmer, Foster City, Calif.) consisted of a 50 μl mixture containing cDNA, dNTPs (each at 200 μM), 0.5 μM of each primer pair and 1.25 unit of Taq polymerase. The primers for human IL-2, IL-10, IL-4, IL-6, IL-1b, IFNg, c-myc, IL-2R, CD40L (Stratagene, La Jolla, Calif.), iNOS (Clontech, Palo Alto, Calif.) and pHE7 ribosomal gene were used. Typical amplification conditions included a 5-minute denaturation at 94° C. and a 5 minute annealing at 60° C. followed by 35 cycles of 1.5 min at 72° C., 45 sec at 94° C. and 45 sec at 60° C., with a final extension time of 10 min at 72° C. The primers for mouse IL-2, IFNγ, and β-actin were obtained from Stratagene and mouse IL-10 from Clontech. Amplification conditions for the Stratagene mouse cytokine primers were a 5 min denaturation at 94° C. and a 5 min annealing at 60° C. followed by 35 cycles of 1.5 min at 72° C., 45 sec at 94° C. and 45 sec at 60° C., with a final extension time of 10 min at 72° C. For IL-10, the PCR conditions were a 5-minute denaturation at 94° C. followed by 35 cycles of 45 sec at 94° C., 45 sec at 60° C. and 2 min at 72° C., with a final extension time of 7 min at 72° C.\nFor each gene product, the optimum cDNA dilution was determined experimentally and was defined as the cDNA dilution that would achieve a detectable concentration that was well below saturating conditions. […] Equivalent loading was assessed following hybridization with a probe generated from pHE7 sense primer. Washed blots were then analyzed using a Phosphorimager (Biorad, Richmond, Calif.). Relative changes in cytokine or other test mRNA were presented as densitometric readings and normalized for any variations in input RNA by determining the densitometric ratio of mRNA of interest relative to mRNA of the housekeeping gene, pHE7."}, "[4]": {"tested_on": "PMA/ionomycin stimulated T cell", "assay": "Extracellular cytokine levels (ELISA) in PMA/ionomycin activated human T cells, 0 or 10 μM nucleoside", "assay_type": "cell-based", "settings": "48 h, 5 human donors, of activated control level"}, "[5]": {"tested_on": "activated human T cells", "assay": "MTT cell proliferation assay", "assay_type": "cell-based", "settings": "data not shown"}, "[6]": {"tested_on": "BALB/c mice", "settings": "mouse, in vivo"}, "[7]": {"settings": "10 μM, T cells from normal donors and RA patients"}, "[8]": {"settings": "2, 5 or 10 μM, 6 h or 24 h, PMA-ION, representative of three donors"}, "[9]": {"settings": "pro-/anti-inflammatory mediator study, FIG. 18"}, "[10]": {"settings": "10 μM, 48 h, representative of five donors"}, "[11]": {"settings": "10 μM, T cells of 16 RA patients"}, "[12]": {"settings": "10 μM, T cells of 16 normal donors"}, "[13]": {"settings": "lymph node cells, DNFB-primed mice"}}, "note": "“And” between values parts separate entries of the source, which are not always exact repeats. Equal entries are not always repeated. Where two headings read alike, the source gives them in different places."}
{"smiles": "N=C(N)c1cn([C@@H]2O[C@H](CO)[C@@H](O)[C@H]2O)c2nc[nH]c(=O)c12", "note": "[ICN 10776, 7-β-D-ribofuranosyl-4-oxopyrrolo-[2,3-d]pyrimidine-5-carboxamidine]", "values": [{"measurement": "IFNγ mRNA levels", "setting": "[1]; [7]", "result": "suppressed"}, {"measurement": "IL-4 mRNA levels", "setting": "[1]; [7]", "result": "elevated"}, {"measurement": "TNFα mRNA levels", "setting": "[1]; [7]", "result": "suppressed"}, {"measurement": "IFNγ mRNA", "setting": "[1]; [8]", "result": "concomitant decrease"}, {"measurement": "IL-4 mRNA", "setting": "[1]; [8]", "result": "increase in IL-4 mRNA"}, {"measurement": "TNFα mRNA", "setting": "[1]; [8]", "result": "concomitant decrease"}, {"measurement": "IFNγ mRNA", "setting": "[1]; [9]", "result": "suppression"}, {"measurement": "IL-1β mRNA", "setting": "[1]; [9]", "result": "suppressed"}, {"measurement": "IL-2 mRNA", "setting": "[1]; [9]", "result": "suppression"}, {"measurement": "IL-4 mRNA", "setting": "[1]; [9]", "result": "enhancement"}, {"measurement": "IL-6 mRNA", "setting": "[1]; [9]", "result": "suppressed"}, {"measurement": "IL-10 mRNA", "setting": "[1]; [9]", "result": "enhancement of IL-10"}, {"measurement": "TNFα mRNA", "setting": "[1]; [9]", "result": "suppression"}, {"measurement": "c-myc expression", "setting": "[1]; [9]", "result": "suppression"}, {"measurement": "inducible nitric oxide synthase (iNOS) expression", "setting": "[1]; [9]", "result": "reduction"}, {"measurement": "peak enhancement of PMA-ION-induced IL-4 level", "setting": "[2]; [10]", "result": 166, "unit": "%"}, {"measurement": "peak enhancement of PMA-ION-induced IL-5 level", "setting": "[2]; [10]", "result": 77, "unit": "%"}, {"measurement": "heightened IL-4 production", "setting": "[2]; [11]", "result": 192, "unit": "%"}, {"measurement": "reduced levels of secreted IFNγ", "setting": "[2]; [11]", "result": 63, "unit": "%"}, {"measurement": "heightened IL-4 production", "setting": "[2]; [12]", "result": 266, "unit": "%"}, {"measurement": "reduced levels of secreted IFNγ", "setting": "[2]; [12]", "result": 43, "unit": "%"}, {"measurement": "peak suppression of PMA-ION-induced IFNγ level", "setting": "[2]; 20 μM, 48 h", "result": 72, "unit": "%"}, {"measurement": "peak suppression of PMA-ION-induced IL-2 level", "setting": "[2]; 20 μM, 48 h", "result": 62, "unit": "%"}, {"measurement": "peak suppression of PMA-ION-induced TNFα level", "setting": "[2]; 20 μM, 48 h", "result": 78, "unit": "%"}, {"measurement": "IFNγ, decrease over activated control", "setting": "[2]; CD4+ T cells", "result": 81, "unit": "%"}, {"measurement": "secreted IL-4, increase over activated control", "setting": "[2]; CD4+ T cells", "result": 994, "unit": "%"}, {"measurement": "IFNγ, decrease over activated control", "setting": "[2]; CD8+ T cells", "result": 37, "unit": "%"}, {"measurement": "secreted IL-4, increase over activated control", "setting": "[2]; CD8+ T cells", "result": 228, "unit": "%"}, {"measurement": "IFNγ, decrease over activated control", "setting": "[2]; total T cells", "result": 52, "unit": "%"}, {"measurement": "secreted IL-4, increase over activated control", "setting": "[2]; total T cells", "result": 320, "unit": "%"}, {"measurement": "mean decrease in ear thickness (inhibition of CHS)", "setting": "[3]; 0.3 mg/kg i.p. at time of challenge", "result": 42, "unit": "%"}, {"measurement": "mean decrease in ear thickness (inhibition of CHS)", "setting": "[3]; 0.6 mg/kg i.p. at time of challenge", "result": 68, "unit": "%"}, {"measurement": "IFNγ mRNA levels", "setting": "[3]; [13]", "result": "substantially reduced"}, {"measurement": "IL-2 mRNA levels", "setting": "[3]; [13]", "result": "substantially reduced"}, {"measurement": "murine IL-10 mRNA expression", "setting": "[3]; [13]", "result": "greatly enhanced"}, {"measurement": "enhanced activated IL-4 production", "setting": "[4]", "result": "498%±83"}, {"measurement": "suppressed IFNγ", "setting": "[4]", "result": "43%±4"}, {"measurement": "T cell proliferation (MTT)", "setting": "[5]", "result": "dramatically inhibited T cell proliferation"}, {"measurement": "IFNγ mRNA levels", "setting": "[6]", "result": "substantially reduced"}, {"measurement": "mean decrease in serum nitrite levels", "setting": "[6]", "result": "54% and 78%"}, {"measurement": "murine IL-10 mRNA expression", "setting": "[6]", "result": "greatly enhanced"}]}
